Measured values reported in US20190282673A1, “STAPHTAME ACTIVITY ON BIOFILMS” (priority 2016, published 2019).
Several values for one entry are separate records, joined by “and”; a condition that tells them apart may be missing. Equal values may be shown once. Read-outs that look alike come from different tables or passages of the source.

B1: P128: anti-staphylococcal chimeric protein: phage tail associated muralytic enzyme (TAME) cell wall-degrading region plus staphylococcus-specific binding region; SEQ ID NO: 1 (protein)
chain: MSLDSLKKYNGKLPKHDPSFVQPGNRHYKYQCTWYAYNRRGQLGIPVPLWGDAADWIGGAKGAGYGVGRTPKQGACVIWQRGVQGGSPQYGHVAFVEKVLDGGKKIFISEHNYATPNGYGTRTIDMSSAIGKNAQFIYDKKLETPNTGWKTNKYGTLYKSESASFTPNTDIITRTTGPFRSMPQSGVLKAGQTIHYDEVMKQDGHVWVGYTGNSGQRIYLPVRTWNKSTNTLGVLWGTIK
modifications: P128 chimera

Legend:
[1] = test system: S. lugdunensis B9510 biofilms; assay: MBIC and checkerboard synergy on preformed biofilm (MTT assay); format: cell-based; conditions: S. lugdunensis B9510 72 h preformed biofilm, 6 hr treatment
Method: (§1) […] LB supplemented with 50 μg/mL Ca^++ was used for daptomycin treatment wells. The contents of the well was aspirated out and discarded. The biofilm adhered to the wells was quantified by MTT assay as described above. In each experiment, in addition to the combination MBIC, the MBIC of each drug was also determined individually. The fractional MBIC concentrations were determined by MTT dye method as described above. The FICI and synergy was calculated.

[2] = test system: S. haemolyticus B9511 biofilms; assay: as above; format: cell-based; conditions: S. haemolyticus B9511 72 h preformed biofilm, 6 hr treatment
Method: as §1

[3] = test system: S. epidermidis, S. lugdunensis and S. haemolyticus biofilms; assay: CoNS biofilm eradication, crystal violet staining; format: cell-based; conditions: for Activity on preformed biofilm, crystal violet: 250 and 100 μg/mL for 4 h, all three CoNS
Method: Dis. 209:1469-78 was followed. Briefly, S. epidermidis, S. lugdunensis and S. haemolyticus strains were inoculated into TSB with 2% glucose and the cultures were grown overnight. The cultures were diluted 1:50 in TSB to achieve an OD600˜0.1. Two hundred micro liter of the diluted culture was added to 1.8 ml of TSB media aliquoted into each well of a 24 well plate (˜5×10^5 CFU). The plates were kept at 37° C. under static conditions for 18 h, the contents were aspirated, the wells were washed twice with 2.0 ml of 1×PBS, and 1 mL of media+1 mL of the drug was added to each well and incubated at 37° C. for 0, 2, 4, and 24 h. TSB supplemented with 50 μg/ml Ca^++ was used for daptomycin treatment wells. The contents were aspirated out at the stipulated time points and the wells were washed with 2 ml of 1×PBS. The wells were allowed to dry at 37° C. for 15 min and stained with 1 mL of 1% CV for 5 min. The wells were washed with 1 mL of 1×PBS, air dried and observed for intensity of blue color.
0.1% CV was used for staining biofilms. Post staining and washing steps, 1 mL 30% acetic acid is added to each well, incubated in RT for 5-10 min, contents in the well are mixed thoroughly and OD was read at 570 nm.

[4] = test system: MRSA MW2 biofilm on catheter; assay: In vivo biofilm on catheter implanted subcutaneously in neutropenic mice
Method: Eight-nine week old female BALB/c mice 25 g were rendered neutropenic with cyclophosphamide and were operated under ketamine-xylazine anesthesia. A 1-cm incision was made in the dorsal neck surface by aseptic technique and subcutaneous pouch was created. Catheter segments of 1 cm length pre-incubated with MRSA MW2 suspension (6×10^3 CFUs/mL) for 4 hrs, were placed in the subcutaneous space and the wounds were closed with suture thereafter. As uninfected control, one group of mice were surgically operated and a sterile catheter segment was placed in the cavity. At 24 hours post-catheter implantation, mice were treated with P128 (800 μg per animal, subcutaneously) or with the placebo (saline). Treatments were given thrice a day at 2 hr intervals for three days and 1 hr after the last treatment, the catheters were removed, biofilms were harvested and CFUs recovered were plated on culture media and enumerated. Catheters from a subset of animals were stained with 0.1% safranin, (which stains the bacteria) for 5 min.
For evaluation of synergy with daptomycin, mouse model of biofilm described above was used with few modifications. Eight-nine week old female BALB/c mice 25 g were rendered neutropenic with cyclophosphamide and were operated under ketamine-xylazine anesthesia. A 1-cm incision was made in the dorsal neck surface by aseptic technique and subcutaneous pouch was created. Catheter segments measuring 1 cm were placed in the subcutaneous space, and the wounds closed with suture. At 72 hours post-implantation. MRSA MW2 bacterial inoculum (2.1×10^7 CFU per animal) was injected subcutaneously onto the catheter. At 24 hrs post-challenge, animals were treated with either P128 (800 μg per animal, subcutaneous), or daptomycin (12.5 mg/kg, subcutaneous) or a combination of both. Daptomycin was given once every day for three days whereas P128 was administered thrice a day at 2 hr interval for three days. 1 hr after the last treatment, animals were euthanized and catheters were collected and recovered CFUs were enumerated.
Biofilms were also visualized by staining the catheters with 0.1% safranin.

S. aureus COL = format: in vivo, BALB/c mice; conditions: P128 0.2 mg/kg ip single dose, or both
Method: A standard mouse model of S. aureus bacteremia was used. Zuluaga, et al. (2006) “Neutropenia induced in out bred mice by a simplified low-dose cyclophosphamide regimen: Characterization and applicability to diverse experimental models of infectious diseases” BMC Infect. Dis. 6:55-64. Female BALB/c mice of 8-9 weeks age were challenged by intraperitoneal route with S. aureus COL at 10^9 CFU per animal. After the bacterial challenge, animals were treated through parenteral routes with P128 alone or P128 in combination with standard of care antibiotics (e.g., vancomycin, daptomycin, linezolid, oxacillin, etc.). Animals were monitored for survival for a period of 72 hours. In this model of infection, normal as well as immunocompromised (neutropenia induced by cyclophosphamide) mice were used to evaluate P128 and antibiotic-P128 combinations.
Eight to nine weeks old female BALB/c mice were challenged intraperitoneally with 10^9 CFU of S. aureus COL. At 2 hours post-infection, animals were treated with either P128 at 0.2 mg/kg via intraperitoneal route, or vancomycin at 55 mg/kg by subcutaneous route, or a combination of both by respective routes. Groups treated with only vancomycin or combination of P128 and vancomycin were administered a second dose of vancomycin 12 hours after the first dose.
In the same model, efficacy of daptomycin in combination with P128 was evaluated. At 2 hours post-infection, animals were treated with either P128 at 0.2 mg/kg administered by intraperitoneal route, or daptomycin at 12.5 mg/kg administered by subcutaneous route; or a combination of both administered by respective routes. Groups treated with only daptomycin or combination of P128 and daptomycin were administered a second dose of daptomycin 12 hours after the first daptomycin dose.

[5] = test system: S. aureus MW2 biofilms on catheters; assay: Preformed biofilms on catheters, safranin staining and SEM; format: cell-based, Staphylococcus aureus; conditions: 18 hrs; P128 8 μg/mL (1×MIC); vancomycin 90 μg/mL (90×MIC); daptomycin 10 μg/mL (10×MIC)
Method: To study the efficacy of P128 on biofilms on catheters, an overnight-grown culture of S. aureus MW2 was diluted 1:40 in TSB containing 5% rabbit plasma. Catheter (JMS Infusion set) pieces of 1-2 cm size were cut, slit into two halves and added to the culture. The cultures with catheter pieces were incubated at 37° C. with shaking at 100 rpm for 24 h. Post incubation, the catheters were removed and rinsed twice in PBS to remove the adhering planktonic cells. The biofilms on catheters were challenged with 8, 4, 2 and 1 μg/mL of P128 or 15, 30 and 90 μg/mL of vancomycin or 10 μg/mL of daptomycin (with 50 μg/mL CaCl2) by transferring the catheter pieces into tubes containing the drugs. The tubes were incubated at 37° C. under static conditions for 18 hrs. The catheters were then removed from the tubes, rinsed once in PBS, and immersed in 0.1% safranin for 5 min. The stained catheters were washed once in PBS and allowed to dry. After drying, samples were fixed on aluminum stubs with double sided carbon adhesive tape, coated with 5-7 nm thickness gold using a sputter-coating system (Quorum Technologies; Q150T) and examined by SEM (Carl Zeiss; Neon 40) for the presence of biofilm structures.

S. aureus USA300 = assay: Mouse model of S. aureus with mucin-enhanced virulence, survival; format: in vivo, BALB/c mice; conditions: S. aureus USA300 10^9 CFU ip, P128 […] ip, Vancomycin 27.5 mg/kg sc 2 doses, or both
Method: Eight to nine weeks old female BALB/c mice were challenged intraperitoneally with 10^9 CFU of S. aureus USA300. At 2 hours post-infection, animals were treated with either P128 at 2.5 mg/kg intraperitoneally, or vancomycin at 27.5 mg/kg subcutaneously, or combination of both. Groups treated with only vancomycin or combination of P128 and vancomycin were administered with a second dose of vancomycin at 12 hours after the first treatment. At 72 hours post-infection, P128 and vancomycin yielded 56 and 44% survival, respectively.

[6] = Table VB2: Daptomycin 12.5 mg/kg sc 1 dose per day for 3 days, P128 800 μg per dose sc 3 doses/day for 3 days, or both
[7] = S. aureus COL, Daptomycin 12.5 mg/kg sc 2 doses, 24 mice per group
[8] = S. aureus COL 10^9 CFU ip, Vancomycin 55 mg/kg sc 2 doses, 26 mice per group
[9] = P128 800 μg per animal sc, thrice a day for three days
[10] = Table VB1: pre-colonised catheter, P128 800 μg per dose sc, 3 doses/day for 3 days

Molecule	MBIC (drug alone) [1]	MBIC (drug alone) [2]	Activity on preformed biofilm, crystal violet [3]	CFU recovered from catheter biofilm, individual animals [4, 6]	Survival at 72 h post infection (S. aureus COL; [7]) [%]	Effect on catheter biofilm (safranin/SEM) [5]	Survival at 72 h post infection (S. aureus COL; [8]) [%]	Survival at 72 h post infection (S. aureus USA300) [%]	Survival at 72 h post infection (S. aureus USA300; listed as vancomycin) [%]	Reduction in CFUs compared to the control group [4, 9]	Safranin staining of catheters [4, 9]	Avg. CFU recovered from catheter biofilm [4, 10]	CFU recovered from catheter biofilm, individual animals [4, 10]	Removal of visual biomass ([3]; P128 8 μg/mL (1×MIC), SOC antibiotics 250×MIC or 100×MIC)	Time of treatment to eliminate the biofilms ([3]; P128 at 1×MIC (8 μg/mL)) [h]	OD570 of crystal violet vs cell control ([3]; even after 24 h, all three CoNS sp.)
CC(=O)NC[C@H]1CN(c2ccc(N3CCOCC3)c(F)c2)C(=O)O1 [Linezolid, linezolid]	125 µg/mL	>250 µg/mL	poor activity													
CCCCCCCCCC(=O)N[C@@H](Cc1c[nH]c2ccccc12)C(=O)N[C@H](CC(N)=O)C(=O)N[C@@H](CC(=O)O)C(=O)N[C@@H]1C(=O)NCC(=O)N[C@@H](CCCN)C(=O)N[C@@H](CC(=O)O)C(=O)N[C@H](C)C(=O)N[C@@H](CC(=O)O)C(=O)NCC(=O)N[C@H](CO)C(=O)N[C@@H]([C@H](C)CC(=O)O)C(=O)N[C@@H](CC(=O)c2ccccc2N)C(=O)O[C@@H]1C [Daptomycin, daptomycin]	15.6 µg/mL	>250 µg/mL	poor activity	4.9 CFU (Log10)/ml and 2.6 CFU (Log10)/ml and 3.0 CFU (Log10)/ml and 2.7 CFU (Log10)/ml	45	significant reduction in biofilm mass										
CN[C@H](CC(C)C)C(=O)N[C@H]1C(=O)N[C@@H](CC(N)=O)C(=O)N[C@H]2C(=O)N[C@H]3C(=O)N[C@H](C(=O)N[C@H](C(=O)O)c4cc(O)cc(O)c4-c4cc3ccc4O)[C@H](O)c3ccc(c(Cl)c3)Oc3cc2cc(c3O[C@@H]2O[C@H](CO)[C@@H](O)[C@H](O)[C@H]2O[C@H]2C[C@](C)(N)[C@H](O)[C@H](C)O2)Oc2ccc(cc2Cl)[C@H]1O [Vancomycin, vancomycin]	250 µg/mL	>250 µg/mL	poor activity			minimal effect	46	43	44							
B1	32 µg/mL and 16 µg/mL	6.25 µg/mL and 12.5 µg/mL		2.5 CFU (Log10)/ml and 2.0 CFU (Log10)/ml and 2.7 CFU (Log10)/ml	45	eradication of the biofilm	30	56		greater than 1 log	eradication of biofilm	2.8 CFU Log(10)/ml	4.15 CFU (Log10)/ml and 3.12 CFU (Log10)/ml and 1.00 CFU (Log10)/ml and Nil	removed all visual biomass	≤ 2	significant drop in OD
